Reference: ChEMBL document CHEMBL1201862, “PubChem BioAssay data set” (2004)
The source made the active and inactive calls.

Experiments:
[1] = tested on: HEK293; assay: cells; assay type: functional, cell-based; conditions: Homo sapiens
[2] = tested on: HEK293; assay: NOD1 signaling inhibitors, primary screen, cell-based, luminescence, uHTS (AID 1578); assay type: functional; conditions: Homo sapiens
[3] = molecular target: Nucleotide-binding oligomerization domain-containing protein 2 (Homo sapiens, UniProt Q9HC29); assay: NOD2 signaling inhibitors, cell-based, luminescence, uHTS, HEK293 (AID 1566); assay type: functional
Chain of Nucleotide-binding oligomerization domain-containing protein 2 (Q9HC29 whole entry, the tested form may be a part): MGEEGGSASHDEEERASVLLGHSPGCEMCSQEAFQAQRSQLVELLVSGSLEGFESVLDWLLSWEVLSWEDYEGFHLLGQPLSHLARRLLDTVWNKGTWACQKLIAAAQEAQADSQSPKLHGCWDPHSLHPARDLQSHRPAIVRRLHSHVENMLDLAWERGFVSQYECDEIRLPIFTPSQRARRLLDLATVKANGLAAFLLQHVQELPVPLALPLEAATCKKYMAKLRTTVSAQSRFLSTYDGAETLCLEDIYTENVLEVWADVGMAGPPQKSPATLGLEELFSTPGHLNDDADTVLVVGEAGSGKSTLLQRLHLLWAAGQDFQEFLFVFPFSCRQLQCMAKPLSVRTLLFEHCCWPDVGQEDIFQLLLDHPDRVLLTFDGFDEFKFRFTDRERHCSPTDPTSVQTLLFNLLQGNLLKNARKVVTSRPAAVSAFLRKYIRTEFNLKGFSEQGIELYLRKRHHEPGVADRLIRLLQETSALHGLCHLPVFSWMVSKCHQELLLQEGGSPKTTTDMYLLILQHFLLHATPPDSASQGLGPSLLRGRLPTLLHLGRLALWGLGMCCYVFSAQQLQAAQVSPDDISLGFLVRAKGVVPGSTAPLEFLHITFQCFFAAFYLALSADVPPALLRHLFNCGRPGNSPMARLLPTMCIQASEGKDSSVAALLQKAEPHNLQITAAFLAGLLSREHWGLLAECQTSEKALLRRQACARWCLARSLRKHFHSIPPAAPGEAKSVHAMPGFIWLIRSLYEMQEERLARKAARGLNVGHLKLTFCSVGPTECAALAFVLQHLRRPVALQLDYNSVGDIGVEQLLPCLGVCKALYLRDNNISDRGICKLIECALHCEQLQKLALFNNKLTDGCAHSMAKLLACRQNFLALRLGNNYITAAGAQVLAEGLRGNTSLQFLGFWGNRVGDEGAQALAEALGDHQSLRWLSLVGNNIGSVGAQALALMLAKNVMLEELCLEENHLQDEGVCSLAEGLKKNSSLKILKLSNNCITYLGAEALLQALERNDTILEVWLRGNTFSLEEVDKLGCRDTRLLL

[4] = tested on: HEK293; assay: cells; assay type: functional, cell-based; conditions: Homo sapiens; remark: listed apart in the source
[5] = tested on: HEK293; assay: cells; assay type: functional, cell-based; conditions: Homo sapiens; remark: listed apart in the source
[6] = tested on: HEK293; assay: NOD2 signaling inhibitors in MDP-stimulated cells, cell-based, uHTS, luminescence (AID 2001); assay type: functional; conditions: Homo sapiens
[7] = Luminescence-based counterscreen assay for KLF5 inhibitors: dose response cell-based high throughput screening assay to identify cytotoxic compounds using the IEC-6 intestinal epithelial cell line. [Related pubchem assays: 1700 (Primary screen.), 1834 (Confirmation screen.), 1858 (Summary AID.), 1905 (Counterscreen.)]; assay type: functional
[8] = molecular target: T1, RNA-binding protein pos-1 (Caenorhabditis elegans, UniProt G5EF15); assay: inhibitors of POS-1/mex-3 RNA binding, dose response, biochemical, fluorescence polarization (AID 1964);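 also: purified POS-1 fused to maltose binding protein made in E. coli; potency of compounds blocking POS-1 binding to fluorescent RNA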
T1 sequence (G5EF15 whole entry): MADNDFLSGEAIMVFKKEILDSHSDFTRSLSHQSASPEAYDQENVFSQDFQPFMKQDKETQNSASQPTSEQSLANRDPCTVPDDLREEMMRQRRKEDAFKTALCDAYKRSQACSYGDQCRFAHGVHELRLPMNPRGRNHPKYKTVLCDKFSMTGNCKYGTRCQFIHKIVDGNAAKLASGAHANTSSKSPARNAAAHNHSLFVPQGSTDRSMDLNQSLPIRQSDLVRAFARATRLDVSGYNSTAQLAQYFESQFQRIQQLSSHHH

[9] = molecular target: T2, Microphthalmia-associated transcription factor (Homo sapiens, UniProt O75030); assay: TRPM1 promoter luciferase signal decrease, dose response, MITF inhibitor project, cell-based, SK-MEL-5, cherry-picked, set 3 (AID 493073); assay type: functional
T2 sequence (O75030 whole entry): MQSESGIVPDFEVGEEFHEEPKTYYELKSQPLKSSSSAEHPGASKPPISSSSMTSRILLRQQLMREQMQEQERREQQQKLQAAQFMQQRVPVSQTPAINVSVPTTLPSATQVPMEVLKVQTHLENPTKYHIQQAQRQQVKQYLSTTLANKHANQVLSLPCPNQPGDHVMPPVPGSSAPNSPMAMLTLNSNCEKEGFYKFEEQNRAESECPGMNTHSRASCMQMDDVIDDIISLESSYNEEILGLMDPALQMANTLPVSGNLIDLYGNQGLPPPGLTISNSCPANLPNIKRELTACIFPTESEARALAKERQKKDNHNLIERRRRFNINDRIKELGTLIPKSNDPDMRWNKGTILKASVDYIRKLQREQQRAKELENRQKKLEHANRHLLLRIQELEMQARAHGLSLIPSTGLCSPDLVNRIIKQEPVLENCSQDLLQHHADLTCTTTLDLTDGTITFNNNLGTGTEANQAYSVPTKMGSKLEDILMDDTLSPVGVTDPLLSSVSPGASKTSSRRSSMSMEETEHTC

[10] = molecular target: T3, Zinc finger protein mex-5 (Caenorhabditis elegans, UniProt Q9XUB2); assay: MEX-5/TCR-2 RNA interaction inhibitors, dose response, biochemical, C. elegans, fluorescence polarization (AID 1960)
T3 sequence (Q9XUB2 whole entry): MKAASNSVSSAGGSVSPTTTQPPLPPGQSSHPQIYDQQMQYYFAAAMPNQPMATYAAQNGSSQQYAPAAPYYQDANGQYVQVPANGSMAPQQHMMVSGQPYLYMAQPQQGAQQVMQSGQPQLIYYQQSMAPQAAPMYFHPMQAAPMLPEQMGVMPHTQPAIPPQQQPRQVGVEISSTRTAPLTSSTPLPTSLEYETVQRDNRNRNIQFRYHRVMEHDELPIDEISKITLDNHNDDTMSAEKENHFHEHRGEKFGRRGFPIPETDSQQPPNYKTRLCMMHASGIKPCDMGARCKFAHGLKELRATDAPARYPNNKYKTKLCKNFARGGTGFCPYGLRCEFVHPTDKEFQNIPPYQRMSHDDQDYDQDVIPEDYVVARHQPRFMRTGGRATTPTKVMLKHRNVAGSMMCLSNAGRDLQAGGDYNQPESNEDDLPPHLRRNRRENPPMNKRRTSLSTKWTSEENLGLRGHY

[11] = molecular target: Neurotensin receptor type 1 (Homo sapiens, UniProt P30989); assay type: functional;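 also: Image-based confirmatory dose-response assay measuring agonist activity at NTR1; NTR1-expressing U2OS osteosarcoma cells imaged for beta-arrestin GFP spot formation; agonist potency where compounds increase beta-arrestin recruitment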
Chain of Neurotensin receptor type 1 (P30989 whole entry): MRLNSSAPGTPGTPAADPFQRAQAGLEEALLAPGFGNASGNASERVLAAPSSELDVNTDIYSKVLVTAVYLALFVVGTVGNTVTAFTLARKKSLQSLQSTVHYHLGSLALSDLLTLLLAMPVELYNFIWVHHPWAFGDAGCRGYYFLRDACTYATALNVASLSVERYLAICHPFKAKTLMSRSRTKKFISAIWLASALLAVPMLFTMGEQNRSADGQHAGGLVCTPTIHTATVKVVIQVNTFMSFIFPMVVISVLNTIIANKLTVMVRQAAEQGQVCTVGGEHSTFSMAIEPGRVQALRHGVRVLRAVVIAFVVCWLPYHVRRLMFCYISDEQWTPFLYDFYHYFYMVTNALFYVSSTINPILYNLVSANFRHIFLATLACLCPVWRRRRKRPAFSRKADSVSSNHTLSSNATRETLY

[12] = molecular target: Heat shock protein HSP 90-alpha (Homo sapiens, UniProt P07900); assay type: functional, organism-based
[13] = molecular target: T4, Kappa-type opioid receptor (Homo sapiens, UniProt P41145); assay type: functional
T4 sequence (P41145 whole entry): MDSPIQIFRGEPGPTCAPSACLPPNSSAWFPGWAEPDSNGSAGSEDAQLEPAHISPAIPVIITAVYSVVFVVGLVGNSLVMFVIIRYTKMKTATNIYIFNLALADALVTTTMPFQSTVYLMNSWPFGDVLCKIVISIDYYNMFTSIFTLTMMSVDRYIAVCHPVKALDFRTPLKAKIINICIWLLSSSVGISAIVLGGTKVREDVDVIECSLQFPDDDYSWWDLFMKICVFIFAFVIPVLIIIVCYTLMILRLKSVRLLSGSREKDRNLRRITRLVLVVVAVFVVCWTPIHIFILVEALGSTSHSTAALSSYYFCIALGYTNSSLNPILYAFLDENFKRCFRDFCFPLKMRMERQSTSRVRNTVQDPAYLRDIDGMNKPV

[14] = molecular target: T5, Streptokinase A (Streptococcus pyogenes serotype M1, UniProt P10520); assay: S. pyogenes streptokinase expression inhibitors, potency, dose response, plasminogen activation absorbance, OD405 (AID 1914); assay type: functional, Streptococcus pyogenes M1 GAS;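 also: secreted streptokinase activity via plasminogen activation per viability signal from cell pellet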
T5 sequence (P10520 whole entry): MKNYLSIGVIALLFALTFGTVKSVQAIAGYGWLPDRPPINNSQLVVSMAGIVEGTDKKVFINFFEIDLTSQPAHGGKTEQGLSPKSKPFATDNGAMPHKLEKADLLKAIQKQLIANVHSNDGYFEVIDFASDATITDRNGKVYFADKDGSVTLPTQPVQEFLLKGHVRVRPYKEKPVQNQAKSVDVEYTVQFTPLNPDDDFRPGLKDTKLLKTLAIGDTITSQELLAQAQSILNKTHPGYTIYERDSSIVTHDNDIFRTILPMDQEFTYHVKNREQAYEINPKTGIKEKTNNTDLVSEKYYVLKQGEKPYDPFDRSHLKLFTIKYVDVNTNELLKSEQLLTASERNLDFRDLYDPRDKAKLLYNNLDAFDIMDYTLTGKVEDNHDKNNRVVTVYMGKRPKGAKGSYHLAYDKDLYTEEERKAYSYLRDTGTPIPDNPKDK

[15] = cytotoxicity toward NIH3T3 fibroblasts, dose response, counter-screen, cell-based, ATP luminescence, mouse fibroblasts (AID 2010); assay type: functional;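 also: cells exposed to compound for about 90 hours before reading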
[16] = molecular target: Beta-galactosidase (Escherichia coli, UniProt Q8VNN2); assay type: functional
Chain of Beta-galactosidase (Q8VNN2 whole entry): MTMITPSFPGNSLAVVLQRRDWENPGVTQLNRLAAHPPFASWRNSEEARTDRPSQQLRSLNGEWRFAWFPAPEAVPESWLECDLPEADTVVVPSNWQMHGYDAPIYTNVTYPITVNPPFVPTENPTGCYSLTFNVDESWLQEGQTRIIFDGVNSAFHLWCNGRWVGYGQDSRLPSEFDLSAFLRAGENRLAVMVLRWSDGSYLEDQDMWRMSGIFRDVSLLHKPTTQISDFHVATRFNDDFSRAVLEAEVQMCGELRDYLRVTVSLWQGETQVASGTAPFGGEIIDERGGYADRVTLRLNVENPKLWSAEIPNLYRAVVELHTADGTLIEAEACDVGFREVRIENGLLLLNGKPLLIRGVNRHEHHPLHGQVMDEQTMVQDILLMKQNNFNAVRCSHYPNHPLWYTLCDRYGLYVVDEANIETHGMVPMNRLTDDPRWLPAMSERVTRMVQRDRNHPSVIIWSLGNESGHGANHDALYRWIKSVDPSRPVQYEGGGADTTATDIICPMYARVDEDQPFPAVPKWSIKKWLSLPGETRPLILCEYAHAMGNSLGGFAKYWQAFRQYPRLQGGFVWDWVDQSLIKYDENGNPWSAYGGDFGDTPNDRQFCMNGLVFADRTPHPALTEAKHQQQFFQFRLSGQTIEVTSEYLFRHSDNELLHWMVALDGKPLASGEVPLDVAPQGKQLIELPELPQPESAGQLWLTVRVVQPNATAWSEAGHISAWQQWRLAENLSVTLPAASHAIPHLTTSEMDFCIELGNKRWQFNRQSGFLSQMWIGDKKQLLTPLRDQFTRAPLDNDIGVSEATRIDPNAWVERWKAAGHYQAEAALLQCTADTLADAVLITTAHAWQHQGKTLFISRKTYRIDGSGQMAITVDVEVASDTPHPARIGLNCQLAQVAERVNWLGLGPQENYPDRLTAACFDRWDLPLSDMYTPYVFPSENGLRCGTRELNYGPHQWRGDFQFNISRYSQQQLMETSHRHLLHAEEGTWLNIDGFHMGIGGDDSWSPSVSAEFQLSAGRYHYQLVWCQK

[17] = tested on: INS1; assay: beta cell apoptosis inhibitors, cytokine rescue, dose response, luminescence, retest (AID 449756); assay type: functional, cell-based; conditions: Rattus norvegicus;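 also: cell death triggered by IL-1 beta plus TNF-alpha plus IFN-gamma mixture; protective hits raise ATP signal compared with cytokine alone wells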
[18] = inhibitors of intracellular T. cruzi replication, confirmation, NIH3T3 host cells, beta-gal luminescence (AID 2044); assay type: functional, cell-based;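 also: intracellular parasites grown in NIH/3T3 mouse fibroblasts as host cells; luminescent beta-galactosidase reporter signal from transgenic T. cruzi replicating inside host cells; inhibitors lower the luminescence signal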
[19] = tested on: Streptococcus; assay: Group A Streptococcus viability loss, dose response, counter-screen for streptokinase expression inhibitor project, luminescence, BacTiterGlo (AID 1915); assay type: functional, organism-based;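 also: potency for reduction of bacterial viability or growth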
[20] = tested on: Streptococcus sp. 'group A'; assay: growth inhibition of control SK(-) GAS strain, dose response, counter-screen for streptokinase expression inhibitor project, luminescence, kanamycin, BacTiterGlo, confirmation (AID 1900); assay type: functional, organism-based
[21] = molecular target: T4, Kappa-type opioid receptor; assay type: functional; remark: listed apart in the source
[22] = molecular target: Polyadenylate-binding protein 1 (Homo sapiens, UniProt P11940); assay: PABP poly(A) RNA binding inhibitors, primary screen, biochemical, fluorescence polarization, uHTS (AID 2014)
Chain of Polyadenylate-binding protein 1 (P11940 whole entry): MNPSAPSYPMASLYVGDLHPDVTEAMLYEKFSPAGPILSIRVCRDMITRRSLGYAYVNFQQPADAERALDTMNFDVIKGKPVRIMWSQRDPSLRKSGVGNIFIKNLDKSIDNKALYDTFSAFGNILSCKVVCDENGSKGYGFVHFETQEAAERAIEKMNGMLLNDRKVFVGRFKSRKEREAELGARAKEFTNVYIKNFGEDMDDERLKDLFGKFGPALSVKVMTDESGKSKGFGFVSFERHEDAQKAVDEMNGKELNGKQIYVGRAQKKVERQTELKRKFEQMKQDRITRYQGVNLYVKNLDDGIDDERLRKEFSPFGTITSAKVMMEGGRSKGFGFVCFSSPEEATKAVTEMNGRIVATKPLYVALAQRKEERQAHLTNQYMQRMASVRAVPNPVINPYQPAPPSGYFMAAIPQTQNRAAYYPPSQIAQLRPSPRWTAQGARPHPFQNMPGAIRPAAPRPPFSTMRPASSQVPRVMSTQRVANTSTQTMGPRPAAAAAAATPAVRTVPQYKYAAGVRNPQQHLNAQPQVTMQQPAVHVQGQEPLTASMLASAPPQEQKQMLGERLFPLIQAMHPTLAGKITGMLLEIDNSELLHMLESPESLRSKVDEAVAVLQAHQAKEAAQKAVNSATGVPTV

[23] = molecular target: Eukaryotic translation initiation factor 4H (Homo sapiens, UniProt Q15056); assay: human eIF4H binding inhibitors, primary screen, translation initiation inhibitor project, biochemical, uHTS, fluorescence polarization (AID 2012)
[24] = tested on: HEK293; assay: inhibitors of LMP1-driven NF-kB reporter, dose response, cell-based, HEK293, luciferase, cherry-pick (AID 588343); assay type: functional; conditions: Homo sapiens
[25] = cells; assay type: functional, cell-based
[26] = cells; assay type: functional, cell-based; remark: listed apart in the source
[27] = molecular target: Ion channel NompC (Danio rerio, UniProt Q7T1G6); assay: Fluorescence counterscreen assay for TRPML3 agonists: dose response cell-based high-throughput screening assay to identify agonists of the transient receptor potential channel N1 (TRPN1). [Related pubchem assays: 1526, 1424, 1448 ]; assay type: functional
[28] = molecular target: Mucolipin-3 (Homo sapiens, UniProt Q8TDD5); assay: Dose response cell-based high-throughput screening assay for agonists of the transient receptor potential channel ML3 (TRPML3). [Related pubchem assays: 1526, 1424, 1448 ]; assay type: functional
Chain of Mucolipin-3 (Q8TDD5 whole entry): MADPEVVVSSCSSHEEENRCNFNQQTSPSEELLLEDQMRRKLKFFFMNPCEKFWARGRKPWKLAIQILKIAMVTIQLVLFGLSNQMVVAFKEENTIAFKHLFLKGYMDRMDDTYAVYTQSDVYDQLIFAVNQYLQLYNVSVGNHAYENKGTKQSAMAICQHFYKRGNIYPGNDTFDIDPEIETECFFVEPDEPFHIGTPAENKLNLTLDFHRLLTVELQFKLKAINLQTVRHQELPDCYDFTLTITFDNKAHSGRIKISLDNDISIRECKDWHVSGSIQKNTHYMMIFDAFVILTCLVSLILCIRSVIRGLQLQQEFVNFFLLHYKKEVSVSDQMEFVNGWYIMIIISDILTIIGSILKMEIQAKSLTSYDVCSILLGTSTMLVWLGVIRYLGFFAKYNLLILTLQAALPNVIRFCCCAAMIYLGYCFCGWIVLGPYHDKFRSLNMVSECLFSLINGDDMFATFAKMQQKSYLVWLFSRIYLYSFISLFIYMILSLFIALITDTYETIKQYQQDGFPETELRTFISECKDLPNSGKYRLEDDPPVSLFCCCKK

In the case of Cc1cc(/C=N/Nc2nc(N)ncc2[N+](=O)[O-])c(C)n1-c1ccccc1F, the IC50 [1] is reported as > 20 µM (inactive), the EC50 [2] is reported as 4.64 µM (active) and the EC50 [3] is reported as < 0.31 µM (inactive). For the same compound, the IC50 [4] was > 20 µM (inactive), the IC50 [5] was 1.77 µM (active) and the IC50 [6] was 6.02 µM (active). The IC50 [7] was > 39.8 µM (not active).
For CCOC(=O)/C=c1\s/c(=C\c2ccc3cc(OC)ccc3c2)c(=O)n1CC(=O)NCC1CCCO1 (stereo not given), the EC50 [8] was 90.4 µM (active), the AC50 [9] was 5.73 µM (active) and the EC50 [10] was > 300 µM (not active). The EC50 [11] was 7.15 µM (active).
For Cc1[nH]c(N=Nc2ccccc2)nc1N=Nc1ccccc1, the AC50 [12] was 3.76 µM (active), the IC50 [13] was 8.4 µM (active) and the EC50 [14] was 23.4 µM (active). The EC50 [15] was 4.45 µM (active), the EC50 [16] was 17.4 µM (active) and the AC50 [17] was 3.72 µM (active). The EC50 [18] was 1.12 µM (active), the EC50 [19] was > 50 µM (not active) and the EC50 [20] was 3.49 µM (active). For the same compound, the IC50 [21] was over 32 µM.
In the case of CCN(CC)C(=O)CC(c1ccc2c(c1)OCO2)c1c(OC)cc(OC)c2ccc(=O)oc12 (stereo not given), the IC50 [22] is reported as 20.1 µM (active) and the IC50 [23] is reported as 10.3 µM (active).
With Cc1ccc2[nH]c(C(=O)N/N=C/c3ccccc3O)c(C)c2c1 the EC50 [14] was > 150 µM (not active), the EC50 [15] was 6.55 µM (active) and the AC50 [24] was 7.07 µM (active). The EC50 [25] was 6.86 µM (active), the AC50 [17] was 0.507 µM (active) and the EC50 [18] was 0.564 µM (active). The EC50 [19] was 3.86 µM (active), the IC50 [7] was 3.15 µM (active) and the EC50 [20] was 1.63 µM (active). The EC50 [26] was > 350 µM (not active).
With O=C(C1Cc2ccccc2CN1S(=O)(=O)c1ccc(F)cc1)N1CCCCC1 (stereo not given) the EC50 [27] was 13.3 µM (not active) and the EC50 [28] was 2.06 µM (active).
